Measured values published in patent publication US4097471A, “Polypeptides with morphine-like activity” (American Home Products Corporation, priority 1977, dated 1978).
Peptide text beside a SMILES is read from it.

Assays:
[1] = tested on: pain threshold (tail-flick latency); test: rat-tail flick method, intracerebroventricular injection; type: in vivo; details: for Mean Latency ± SEM, Drug / Mean % Change ± SEM: injected into lateral ventricle; for Mean Latency ± SEM, Drug / Mean % Change ± SEM / analgesic effect / pain threshold: rat; for Mean % Change ± SEM: drug minus baseline latency; for analgesic effect / pain threshold: injected into the lateral brain ventricle
Experimental: In this test method, which is a standard test for analgesia, a light beam is focused on the tip of the rat's tail, and the pain threshold of the animal is measured by the latency of the rat to remove his tail from the noxious heat source. When tested by the rat-tail flick method by intracerebroventricular injection, according to the procedure of Belluzzi et al., Nature, 260, 625 (1976), the polypeptides of this invention produced the effects set forth in Table I.
*All drugs were dissolved in […]. of Ringer's solution and injected int
the lateral ventricle through permanently-indwelling cannulae.

[2] = tested on: opiate receptors; test: binding to opiate receptors in vitro, displacement of 3H-naloxone in rat brain homogenates
[3] = tested on: analgesia; details: injection in the brain ventricle in rats; fully reversible by naloxone; cited from earlier work

SMILES	Mean Latency ± SEM, Drug ([1]; dose 10 μg)	Mean % Change ± SEM ([1]; dose 10 μg) [%]	Mean Latency ± SEM, Drug ([1]; dose 100 μg)	Mean % Change ± SEM ([1]; dose 100 μg) [%]	Mean Latency ± SEM, Drug ([1]; dose 200 μg)	Mean % Change ± SEM ([1]; dose 200 μg) [%]	analgesic activity at low dose ([1]; dose as low as 10 μg)	duration of analgesic effect ([1]; dose as low as 10 μg) [h]	analgesic effect / pain threshold ([1]; listed as polypeptide of Formula I)	analgesic effect / pain threshold ([1]; listed as polypeptide of this invention)	binding to opiate receptors in vitro ([2]; in vitro)	displacing 3H-naloxone from binding sites ([2]; rat brain homogenates)	analgesia [3]
CC(C)C[C@H](NC(=O)[C@H](Cc1ccccc1)NC(=O)CNC(=O)CNC(=O)[C@@H](N)Cc1ccc(O)cc1)C(=O)N[C@H](C(=O)N[C@@H](CO)C(=O)N[C@@H](CCC(=O)O)C(=O)N[C@@H](CCCCN)C(=O)N[C@@H](CO)C(=O)N[C@@H](CCC(N)=O)C(=O)N[C@H](C(=O)N1CCC[C@H]1C(=O)N[C@@H](CC(C)C)C(=O)N[C@H](C(=O)N[C@H](C(=O)O)[C@@H](C)O)C(C)C)[C@@H](C)O)[C@@H](C)O [β-LPH 61-76 (Leu^65), L-Tyrosyl-glycyl-glycyl-L-phenylalanyl-L-leucyl-L-threonyl-L-seryl-L-glutamyl-L-lysyl-L-seryl-L-glutaminyl-L-threonyl-L-prolyl-L-leucyl-L-valyl-L-threonine] (H-YGGFLTSEKSQTPLVT-OH)	4.33 ± 0.05	34.32 ± 8.75	6.26 ± 0.96	86.02 ± 30.79	4.16	3.04	active	> 2	exerts an analgesic effect	produced an increase in pain threshold	weak binding	capable of displacing 3H-naloxone	–
CC(C)C[C@H](NC(=O)[C@H](Cc1ccccc1)NC(=O)CNC(=O)CNC(=O)[C@@H](N)Cc1ccc(O)cc1)C(=O)O [Leucine-Enkephalin, H-Tyr-Gly-Gly-Phe-Leu-OH, reference compound]	–	–	5.11 ± 0.34	31.7 ± 11.5	–	–	–	–	–	–	–	–	induce a profound analgesia
CSCC[C@H](NC(=O)[C@H](Cc1ccccc1)NC(=O)CNC(=O)CNC(=O)[C@@H](N)Cc1ccc(O)cc1)C(=O)O [Methionine-Enkaphalin, H-Tyr-Gly-Gly-Phe-Met-OH]	–	–	–	–	–	–	–	–	–	–	–	–	induce a profound analgesia
